From patent US20250213593A1, “Use of Derivatives based on Sarsasapogenin Structure and Pharmaceutical Compositions thereof” (BEIJING PHYTOVENT PHARMACEUTICAL TECHNOLOGY CO., LTD., priority 2022, published 2025) come the findings set out here.

Experiment [1] deals with U2932 (human diffuse large B-cell lymphoma cells). Briefly: Cell proliferation assay, U2932. It is filed as cell-based. The conditions noted are these: U2932, 72 h.
In a further experiment the test system is APOE−/− mutant B6J mice. Briefly: Cardiovascular inflammation of APOE mutant mice fed with high-fat diets. It is filed as in vivo, mouse. Conditions: oral gavage once every 2 days, high-fat diets 16 weeks. The source says: Experimental and analytical method: 6-week-old male APOE−/− mutant B6J mice and WT B6J mice were purchased and acclimatized in a feeding room for 2 weeks. When the mice were 8 weeks old, except for a Vehicle group and a WT group, the rest of the groups were given high-fat diets (Research Diets, D12492). When the mice were 9 weeks old, the Control group was given a 10% cyclodextrin solution, while the rest of the administration groups began to be grouped and administrated with different small molecule compounds (Embodiment 13B, Embodiment 33, Embodiment 36 and Embodiment 37) by oral gavage, at a frequency of once every 2 days. After being fed with high-fat diets for 16 weeks, the APOE mice were sacrificed and aortic arches were taken and dissected.

Experiment [2] relates to SOD^G93A transgenic mice. In words: Open field test of SOD^G93A mice. The conditions noted are these: 40 mpk from Day 60, Week 14 to Week 19; vs model group.
Method: A mean moving speed was calculated in an open field, which is a behavioral analysis method to test motor dysfunction. The mice with motor dysfunction would have a significant reduction in mean moving speed. Our experiments were divided into three groups, i.e., a WT group, a model group and an administration group.
Experiment [3] relates to OCI-LY3 (human diffuse large B-cell lymphoma cells). Briefly: Cell proliferation assay, OCI-LY3. It is filed as cell-based. Conditions: Homo sapiens, OCI-Ly3, 72 h.
Experiment [4] deals with SOD^G93A transgenic mice. In words: Gait analysis of SOD^G93A mice. Conditions: 40 mpk from Day 60, tested at Week 19; vs model group.
From the text: Gait analysis was a behavioral analysis method that tested motor dysfunction. The mice with motor dysfunction would have a significant reduction in stride length. Our experiments were divided into two groups, i.e., a model group and an administration group.
In experiment [5] the test system is mice with ulcerative colitis induced by 3.0% DSS. In words: DSS mouse enteritis model. Conditions: 80 mpk oral gavage once a day, 9 days. It counts as in vivo. From the text:
60 mice in good health were divided into 6 groups according to body weight, with 10 mice in each group: a normal control group, a model group, a positive drug group, and groups of different test products (Embodiment 13B, Embodiment 33, and Embodiment 34, at a dosage of 80 mpk each). In addition to the normal control group, the mice in other groups were administrated with a 3.0% DSS solution to drink freely, and consecutively modeled for 8 days. The normal control group was administrated with autoclaved filtered water to drink freely. The drug was administered on the day of modeling, and a test product was administered by oral gavage according to a designed dosage, once a day for 9 consecutive days. […] On the next day after the last administration, after deep anesthesia with CO2, cardiac blood and plasma were collected, and cryopreserved at −80° C. Subsequently, the abdominal cavity was dissected, the liver was removed and cryopreserved at −80° C. Finally, the entire colon tissue was removed, the colon length was measured, photographs were taken, and the colon content was washed with normal saline after dissection along the mesenteric side and weighed.

The test system of experiment [6] is transgenic AD rat model (human APP mutant protein, SD rats). In words: T-maze test of AD rats. It counts as in vivo. The conditions noted are these: model vs administration group. The protocol: The T-maze test had four stages: I. in an acclimatization stage, food was placed in both arms, and valves on both arms were opened. Each rat was trained twice. All rats entered the next stage after they had eaten the food on both sides within 5 min twice. II. In a forced training stage, a valve on one side was closed first, and the rats were allowed to eat the food on the opposite side. A valve on the opposite side was closed again, and the rats were allowed to eat the food on the other side. This was a training process. Each animal was trained 4 times a day for 3 days. III.
In an optional training stage, the valve on one side was closed in half first, and the rats were allowed to eat the food on the opposite side. All the valves were then closed. If the rats went to the other side, they could finish eating the food there. If the rats went to the same side, there was no food here, and they were closed on this side for 30 s. This was a training process. Each animal was trained 4 times a day until the accuracy rate exceeded 75% for 2 consecutive days and proceeded to the next stage. IV.
In a delayed optional test stage, it was basically the same as the operation of the III stage, except that interval time was added after the forced training stage and before the optional training stage. The interval time was set to 1.5 min, 3 min, and 10 min. Test was performed for 4 times at each time.

The subject of the next experiment is ICR mice. In words: Sleep of mice at subthreshold hypnotic dosage of sodium pentobarbital. Conditions: single oral gavage, high-, medium- and low-dosage; vs blank control. It counts as in vivo, mouse. The procedure:
After adaptive feeding of mice, 50 qualified animals were selected according to their body weights and divided into 5 groups by Excel complete randomization: a blank control group, a positive control group (Diazepam), and high-, medium- and low-dosage groups of test product, with 10 animals in each group. Animals in each group should be administrated with drug solutions and vehicles. After 1 h of administration, the animals in each group were intraperitoneally injected with a maximum subthreshold dosage of sodium pentobarbital (firstly, a pre-experiment was conducted to determine a maximum subthreshold hypnotic dosage of sodium pentobarbital).

Experiment [7] concerns transgenic AD rat model (human APP mutant protein, SD rats). In words: Water maze test of AD rats. The conditions noted are these: administered from 7 to 13 months of age; vs model group.

pIC50: −log10 of the molar value.

In general, pIC50 refers to −log10 of the IC50, conventionally taken in molar units. Read a high pIC50 as a low IC50. Compound `C[C@H]1CC[C@@]2(OC1)O[C@H]1C[C@@H]3[C@H](CC[C@H]4[C@H]3CC[C@@H]3C[C@H](NC(=O)CC(=O)N5CCN(CCN(C)C)CC5)CC[C@@]34C)[C@H]1[C@@H]2C` [Embodiment 13b] showed a pIC50 in experiment [1] of 6.14. In the experiment with APOE−/− mutant B6J mice, the “inflammatory factors IL10, IL-1β and KC/GRO in aortic vascular epithelial tissue” value was “most significant”. The “mean moving rate in open field” value in the experiment with SOD^G93A transgenic mice [2] was “much larger”. This compound also gave a pIC50 in experiment [3] of 5.36. For the same compound, the stride length result with SOD^G93A transgenic mice [4] is reported as “much larger”. In experiment [5], the colon length entry is “could increase the weights and lengths of the colons”; the colon weight entry was “could increase the weights and lengths of the colons”; the “general conditions of DSS colitis mice” value was “certain improvement effects”. Also, in experiment [6] (interval 1.5 min, administered from 7 to 15 months of age), the “working memory in delayed optional T-maze test” value (shortened to “working memory”) is “no significant difference”. Moreover, the “working memory” value in experiment [6] (interval 3 min) was “no significant difference”. Also, the “working memory” value in experiment [6] (interval 10 min) was “working memory of the administration group also persisted”. For the same compound, in the experiment with ICR mice, the sleep latency result is given as “could shorten the sleep latency of the mice, which had a certain dosage-response relationship, but no statistically significant difference” and the sleep time entry is given as “could prolong the sleep time of the mice, but there was no statistically significant difference”. In experiment [7], the “average distance from the platform” value is listed as “improved behavioral performances”, the “dwell time in the target quadrant” value was “improved behavioral performances” and the “number of platform shuttles” value is reported as “improved behavioral performances”.
